Literature values, collected in US7842677B2, “Synthetic ganglioside derivatives and compositions thereof” (Seneb Biosciences, Inc., priority 2001, dated 2010).

Test system: murine neuroblastoma cells

For ganglioside GM3, the “growth of neuroblastoma cells (in words)” value is listed as “inhibit the growth”.
